Experimental data: patent publication US10329302B2, “Bicyclic-fused heteroaryl or aryl compounds” (Pfizer Inc., priority 2014, dated 2019)
Where two headings read alike, the source gives them in different places.

Legend:
[1] = system: R848-induced TNFα production by human peripheral blood mononuclear cells (PBMCs); assay: R848 Induced TNFα in Human PBMC Assay; assay type: cell-based; settings: Homo sapiens, PBMC, 3 h, read-out: R848-induced TNFa PBMC IC50 (nM)
[2] = target: human IRAK4 FL (Full Length) (Homo sapiens (Human), UniProt Q9NWZ3); assay: IRAK4 Enzymatic DELFIA Assay, Protocol A; assay type: biochemical
[3] = human IRAK4 FL, 0.6 mM ATP (KM), read-out: IRAK4 DELFIA Protocol A IC50

Chain of human IRAK4 FL (Full Length) (Q9NWZ3 whole entry): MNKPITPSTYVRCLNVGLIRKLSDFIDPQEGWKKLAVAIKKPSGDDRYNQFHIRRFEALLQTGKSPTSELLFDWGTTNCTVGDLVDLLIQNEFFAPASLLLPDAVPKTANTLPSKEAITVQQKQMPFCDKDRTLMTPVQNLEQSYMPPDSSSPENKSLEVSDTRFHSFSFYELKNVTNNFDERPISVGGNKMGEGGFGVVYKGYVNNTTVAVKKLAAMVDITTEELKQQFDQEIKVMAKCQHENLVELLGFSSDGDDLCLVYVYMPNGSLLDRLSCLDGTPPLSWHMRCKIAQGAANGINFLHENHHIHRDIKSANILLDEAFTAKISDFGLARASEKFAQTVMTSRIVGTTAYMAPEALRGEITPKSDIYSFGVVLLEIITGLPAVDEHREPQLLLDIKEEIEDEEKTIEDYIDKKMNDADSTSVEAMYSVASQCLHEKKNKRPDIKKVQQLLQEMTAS

Compound | IC50 [1] [nM] | IC50 [2, 3] [nM] | IC50 [2] [nM]
COc1cc2c(OC[C@@H]3CCC(=O)N3)cncc2cc1C(N)=O [Example 206, 6-methoxy-4-{[(2S)-5-oxopyrrolidin-2-yl]methoxy}isoquinoline-7-carboxamide] | 4570 | 216 | –
COc1cc2c(OC[C@H]3NC(=O)[C@](F)(CO)[C@H]3C)nccc2cc1C(N)=O [Example 208, 1-{[(2S,3S,4R)-4-fluoro-4-(hydroxymethyl)-3-methyl-5-oxopyrrolidin-2-yl]methoxy}-7-methoxyisoquinoline-6-carboxamide] | 87 | 1.1 | –
COc1cc2c(OC[C@@H]3CCC(=O)N3)ncnc2cc1C(N)=O [Example 209, 6-methoxy-4-{[(2S)-5-oxopyrrolidin-2-yl]methoxy}quinazoline-7-carboxamide] | 9310 | 251 | –
COc1cc2c(OC[C@@H]3C[C@@](F)(CF)C(=O)N3)nccc2cc1C(N)=O [Example 215, 1-{[(2S,4S)-4-fluoro-4-(fluoromethyl)-5-oxopyrrolidin-2-yl]methoxy}-7-methoxyisoquinoline-6-carboxamide] | 35 | – | 1.7
COc1cc2c(OC[C@H]3NC(=O)C[C@H]3C)cccc2cc1C(N)=O [Example 216, 3-methoxy-5-{[(2S,3R)-3-methyl-5-oxopyrrolidin-2-yl]methoxy}naphthalene-2-carboxamide] | 27 | 0.4 | –
COc1cc2c(OC[C@H]3NC(=O)[C@@H](F)[C@H]3C)cccc2cc1C(N)=O [Example 218, 5-{[(2S,3S,4S)-4-fluoro-3-methyl-5-oxopyrrolidin-2-yl]methoxy}-3-methoxynaphthalene-2-carboxamide] | 11 | 0.3 | –
CC(C)Oc1cc2c(OC[C@H]3NC(=O)C[C@H]3C)nccc2cc1C(N)=O [Example 219, 1-{[(2S,3R)-3-methyl-5-oxopyrrolidin-2-yl]methoxy}-7-(propan-2-yloxy)isoquinoline-6-carboxamide] | 65 | 1.7 | –
COc1cc2c(OC[C@@H]3C[C@@H](CC#N)C(=O)N3)nccc2cc1C(N)=O [Example 225, 1-{[(2S,4S)-4-(cyanomethyl)-5-oxopyrrolidin-2-yl]methoxy}-7-methoxyisoquinoline-6-carboxamide] | 155 | 3.4 | –
COc1cc2c(OC[C@H]3NC(=O)O[C@@H]3C)nccc2cc1C(N)=O [Example 227, 7-methoxy-1-{[(4R,5R)-5-methyl-2-oxo-1,3-oxazolidin-4-yl]methoxy}isoquinoline-6-carboxamide] | 749 | 19 | –
COc1cc2c(OC[C@H]3NC(=O)O[C@@H]3C)cccc2cc1C(N)=O [Example 228, 3-methoxy-5-{[(4R,5R)-5-methyl-2-oxo-1,3-oxazolidin-4-yl]methoxy}naphthalene-2-carboxamide] | 118 | 4.2 | –
COc1cc2c(OC[C@H]3COC(=O)N3)nccc2cc1C(N)=O [Example 229, 7-methoxy-1-{[(4S)-2-oxo-1,3-oxazolidin-4-yl]methoxy}isoquinoline-6-carboxamide] | 6300 | 3510 | –
COc1cc2c(OC[C@@H]3COC(=O)N3)nccc2cc1C(N)=O [Example 230, 7-methoxy-1-{[(4R)-2-oxo-1,3-oxazolidin-4-yl]methoxy}isoquinoline-6-carboxamide] | 199 | 7 | –
COc1cc2c(OC[C@@H]3C[C@H](OC)C(=O)N3)cccc2cc1C(N)=O [Example 231, 3-methoxy-5-{[(2S,4S)-4-methoxy-5-oxopyrrolidin-2-yl]methoxy}naphthalene-2-carboxamide] | 509 | – | 67
COc1cc2c(OC[C@@H]3C[C@@H](OC)C(=O)N3)cccc2cc1C(N)=O [Example 232, 3-methoxy-5-{[(2S,4R)-4-methoxy-5-oxopyrrolidin-2-yl]methoxy}naphthalene-2-carboxamide] | 261 | 20 | –
COc1cc2c(OC[C@@H]3COC(=O)N3)cccc2cc1C(N)=O [Example 233, 3-methoxy-5-{[(4R)-2-oxo-1,3-oxazolidin-4-yl]methoxy}naphthalene-2-carboxamide] | 47 | 0.3 | –
COc1cc2c(OC[C@H]3NC(=O)O[C@H]3C)cccc2cc1C(N)=O [Example 234, 3-methoxy-5-{[(4R,5S)-5-methyl-2-oxo-1,3-oxazolidin-4-yl]methoxy}naphthalene-2-carboxamide] | 45 | 1.9 | –
COc1cc2c(OC[C@H]3CNC(=O)O3)nccc2cc1C(N)=O [Example 235, 7-methoxy-1-{[(5R)-2-oxo-1,3-oxazolidin-5-yl]methoxy}isoquinoline-6-carboxamide] | 1090 | 97 | –
COc1cc2c(OC[C@H]3NC(=O)O[C@H]3C)nccc2cc1C(N)=O [Example 236, 7-methoxy-1-{[(4R,5S)-5-methyl-2-oxo-1,3-oxazolidin-4-yl]methoxy}isoquinoline-6-carboxamide] | 125 | 8.4 | –

Compound | IC50 [1] [nM] | IC50 [2, 3] [nM] | IC50 [2] [nM]
COc1cc2c(OC[C@H]3NC(=O)[C@](C)(F)[C@H]3C)nccc2cc1C(N)=O [Example 237, 1-{[(2S,3S,4R)-4-fluoro-3,4-dimethyl-5-oxopyrrolidin-2-yl]methoxy}-7-methoxyisoquinoline-6-carboxamide] | 1080 | 295 | –
COc1cc2c(OC[C@H]3NC(=O)[C@@](C)(F)[C@H]3C)nccc2cc1C(N)=O [Example 238, 1-{[(2S,3S,4S)-4-fluoro-3,4-dimethyl-5-oxopyrrolidin-2-yl]methoxy}-7-methoxyisoquinoline-6-carboxamide] | 45 | 3.7 | –
COc1cc2c(OC[C@@H]3C[C@H](C)C(=O)N3)nccc2cc1C(N)=O [Example 242, 7-methoxy-1-{[(2S,4S)-4-methyl-5-oxopyrrolidin-2-yl]methoxy}isoquinoline-6-carboxamide] | 7250 | 263 | –
COc1cc2c(OC[C@@H]3C[C@@H](C)C(=O)N3)nccc2cc1C(N)=O [Example 243, 7-methoxy-1-{[(2S,4R)-4-methyl-5-oxopyrrolidin-2-yl]methoxy}isoquinoline-6-carboxamide] | 713 | 205 | –
COc1cc2c(OC[C@@H]3CC4(CC4)C(=O)N3)nccc2cc1C(N)=O [Example 245, 7-methoxy-1-{[(6S)-4-oxo-5-azaspiro[2.4]hept-6-yl]methoxy}isoquinoline-6-carboxamide] | 529 | 29 | –
COc1cc2c(OC[C@H]3NC(=O)C[C@@H]3CF)nccc2cc1C(N)=O [Example 249, 1-{[(2S,3S)-3-(fluoromethyl)-5-oxopyrrolidin-2-yl]methoxy}-7-methoxyisoquinoline-6-carboxamide] | 764 | 20 | –
COc1cc2c(OC[C@H]3NC(=O)[C@@H](F)[C@H]3C)ccnc2cc1C(N)=O [Example 250, 4-{[(2S,3S,4S)-4-fluoro-3-methyl-5-oxopyrrolidin-2-yl]methoxy}-6-methoxyquinoline-7-carboxamide] | 144 | 0.6 | –
C=C[C@@H]1CC(=O)N[C@@H]1COc1nccc2cc(C(N)=O)c(OC)cc12 [Example 251, 1-{[(2S,3S)-3-ethenyl-5-oxopyrrolidin-2-yl]methoxy}-7-methoxyisoquinoline-6-carboxamide] | 72 | 3.4 | –
COc1cc2c(OC[C@@H]3C[C@H](F)C(=O)N3)nccc2cc1C(N)=O [Example 252, 1-{[(2S,4S)-4-fluoro-5-oxopyrrolidin-2-yl]methoxy}-7-methoxyisoquinoline-6-carboxamide] | 40 | 0.9 | –
COc1cc2c(OC[C@@H]3C[C@@H](F)C(=O)N3)nccc2cc1C(N)=O [Example 253, 1-{[(2S,4R)-4-fluoro-5-oxopyrrolidin-2-yl]methoxy}-7-methoxyisoquinoline-6-carboxamide] | 122 | 2.6 | –
CC[C@@]1(F)C[C@@H](COc2nccc3cc(C(N)=O)c(OC)cc23)NC1=O [Example 256, 1-{[(2S,4R)-4-ethyl-4-fluoro-5-oxopyrrolidin-2-yl]methoxy}-7-methoxyisoquinoline-6-carboxamide] | 5620 | 2000 | –
CC[C@]1(F)C[C@@H](COc2nccc3cc(C(N)=O)c(OC)cc23)NC1=O [Example 257, 1-{[(2S,4S)-4-ethyl-4-fluoro-5-oxopyrrolidin-2-yl]methoxy}-7-methoxyisoquinoline-6-carboxamide] | 60 | 6.8 | –
COc1cc2c(OC[C@@H]3CC(Cc4ccccc4)C(=O)N3)nccc2cc1C(N)=O (stereo partly drawn) [Example 258, 1-{[(2S)-4-benzyl-5-oxopyrrolidin-2-yl]methoxy}-7-methoxyisoquinoline-6-carboxamide] | 2930 | 141 | –
CC[C@]1(F)C[C@@H](COc2ccnc3cc(C(N)=O)c(OC)cc23)NC1=O [Example 259, 4-{[(2S,4S)-4-ethyl-4-fluoro-5-oxopyrrolidin-2-yl]methoxy}-6-methoxyquinoline-7-carboxamide] | 120 | 3.1 | –
CC[C@@]1(F)C[C@@H](COc2ccnc3cc(C(N)=O)c(OC)cc23)NC1=O [Example 260, 4-{[(2S,4R)-4-ethyl-4-fluoro-5-oxopyrrolidin-2-yl]methoxy}-6-methoxyquinoline-7-carboxamide] | 6280 | 202 | –
COc1cc2c(OC[C@H]3NC(=O)[C@H]4[C@@H]3C4(C)C)nccc2cc1C(N)=O [Example 263, 1-{[(1R,2S,5S)-6,6-dimethyl-4-oxo-3-azabicyclo[3.1.0]hex-2-yl]methoxy}-7-methoxyisoquinoline-6-carboxamide] | 496 | 80 | –
COc1cc2c(OCC3(C)COC(=O)N3)nccc2cc1C(N)=O (stereo not shown) [Example 266, 7-methoxy-1-[(4-methyl-2-oxo-1,3-oxazolidin-4-yl)methoxy]isoquinoline-6-carboxamide] | 394 | 74 | –
